Reference: patent US20240158446A1, “CYCLIC COMPOUND HAVING SELECTIVE INHIBITORY ACTION ON KRAS OVER HRAS AND NRAS” (CHUGAI SEIYAKU KABUSHIKI KAISHA, priority 2021, published 2024)
Read-outs that look alike come from different tables or passages of the source. Where a SMILES comes first, the peptide text is derived from it. Bridges are numbered along the chain shown (N, C = ends). [ ]: non-standard residue; d: D form. The star is where a group is joined. hPhe(3-Cl-4-CF3) = N[C@@H](CCc1ccc(C(F)(F)F)c(Cl)c1)C(=O)O; NPrPhe(4-CF3) = CCCN[C@@H](Cc1ccc(C(F)(F)F)cc1)C(=O)O; NMeGly(cPent) = CN[C@H](C(=O)O)C1CCCC1; Pro(4,4-F2) = O=C(O)[C@@H]1CC(F)(F)CN1; NMeD = CN[C@@H](CC(=O)O)C(=O)O; NMeL = CN[C@@H](CC(C)C)C(=O)O; Morpholide = C1CN(*)CCO1; Ac5c = NC1(C(=O)O)CCCC1; Aze = O=C(O)[C@@H]1CCN1; Ac4c = NC1(C(=O)O)CCC1; Sar = CNCC(=O)O

Assays:
[1] = biological target: GDP-bound NRAS wild-type protein (Homo sapiens, UniProt P01111); test: Binding to NRAS by surface plasmon resonance (SPR), Single Cycle Kinetics; conditions: SPR
GDP-bound NRAS wild-type protein, sequence (P01111 whole entry): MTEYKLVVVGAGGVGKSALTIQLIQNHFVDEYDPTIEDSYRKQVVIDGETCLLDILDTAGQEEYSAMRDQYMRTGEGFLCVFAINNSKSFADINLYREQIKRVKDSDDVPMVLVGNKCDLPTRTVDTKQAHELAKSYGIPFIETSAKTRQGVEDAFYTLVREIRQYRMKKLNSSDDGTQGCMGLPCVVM

[2] = biological target: GDP-bound HRAS wild-type protein (Homo sapiens, UniProt P01112); test: Binding to HRAS by surface plasmon resonance (SPR), Single Cycle Kinetics; conditions: SPR
GDP-bound HRAS wild-type protein, sequence (P01112 whole entry): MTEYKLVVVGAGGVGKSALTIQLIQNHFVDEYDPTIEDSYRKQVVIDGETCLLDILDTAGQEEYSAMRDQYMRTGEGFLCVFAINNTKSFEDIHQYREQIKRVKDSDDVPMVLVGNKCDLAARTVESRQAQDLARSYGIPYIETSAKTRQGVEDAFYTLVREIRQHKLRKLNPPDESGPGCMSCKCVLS

[3] = test system: human lung cancer strain NCI-H441;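 further: cell proliferation inhibition after four days measured by CellTiter-Glo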
[4] = GDP-bound NRAS wild-type protein vs GDP-bound KRAS wild-type protein
[5] = GDP-bound HRAS wild-type protein vs GDP-bound KRAS wild-type protein

CCCN1C(=O)[C@@H]2CCN2C(=O)[C@@H]2CCN2C(=O)[C@H]([C@@H](C)CC)NC(=O)[C@H](CC(C)C)N(C)C(=O)C[C@@H](C(=O)N2CCOCC2)N(C)C(=O)[C@H](C2CCCC2)N(C)C(=O)C2(CCCC2)NC(=O)[C@@H]2CCCN2C(=O)[C@H](CCc2ccc(C(F)(F)F)c(Cl)c2)NC(=O)CN(C)C(=O)[C@@H]1Cc1ccc(C(F)(F)F)cc1 [PP0168] ([NMeL]I[Aze][Aze][NPrPhe(4-CF3)][Sar][hPhe(3-Cl-4-CF3)]P[Ac5c][NMeGly(cPent)][NMeD]-Morpholide; lactam N-11)
NRAS/KRAS (ratio of KD value for NRAS to KD value for KRAS) [1, 4]: C (A compound having a KD ratio of 0.1 or more and less than 3 is denoted as C) | HRAS/KRAS (ratio of KD value for HRAS to KD value for KRAS) [2, 5]: B (a compound having 3 or more and less than 10 is denoted as B) | IC50 [3]: 0.0266 µM

CCCN1C(=O)CN(C)C(=O)[C@@H]2CCN2C(=O)[C@H]([C@@H](C)CC)NC(=O)[C@H](CC(C)C)N(C)C(=O)C[C@@H](C(=O)N(C)C)N(C)C(=O)[C@H](C2CCCC2)N(C)C(=O)C2(CCC2)NC(=O)[C@@H]2CC(F)(F)CN2C(=O)[C@H](CCc2ccc(C(F)(F)F)c(Cl)c2)NC(=O)CN(C)C(=O)[C@@H]1Cc1ccc(C(F)(F)F)cc1 [PP0432] ([NMeL]I[Aze][Sar][NPrPhe(4-CF3)][Sar][hPhe(3-Cl-4-CF3)][Pro(4,4-F2)][Ac4c][NMeGly(cPent)][NMeD]-NMe2; lactam N-11)
NRAS/KRAS (ratio of KD value with respect to NRAS to KD value with respect to KRAS) [1, 4]: B (a compound having 3 or more and less than 10 is denoted as B) | HRAS/KRAS (ratio of KD value with respect to HRAS to KD value with respect to KRAS) [2, 5]: B (a compound having 3 or more and less than 10 is denoted as B) | IC50 [3]: 0.0107 µM

CC[C@H](C)[C@@H]1NC(=O)[C@H](CC)N(C)C(=O)C[C@@H](C(=O)N2CCOCC2)N(C)C(=O)[C@H](C2CCCC2)N(C)C(=O)C2(CCCC2)NC(=O)[C@@H]2CCCN2C(=O)[C@H](CCc2ccc(C(F)(F)F)c(Cl)c2)NC(=O)CN(C)C(=O)[C@H](Cc2ccc(F)cc2)N2CCCCC[C@@H](C2=O)N(C)C(=O)CN(C)C1=O [PP0959]
NRAS/KRAS (ratio of KD value for NRAS to KD value for KRAS) [1, 4]: B (a compound having 3 or more and less than 10 is denoted as B) | HRAS/KRAS (ratio of KD value for HRAS to KD value for KRAS) [2, 5]: B (a compound having 3 or more and less than 10 is denoted as B) | IC50 [3]: 0.156 µM

CCO[C@@H]1C[C@H]2C(=O)NC3(CCC3)C(=O)N(C)[C@@H](C3CCCC3)C(=O)N(C)[C@H](C(=O)N3CCOCC3)CC(=O)N(C)[C@@H](Cc3cscn3)C(=O)N[C@@H]([C@@H](C)CC)C(=O)N(C)CC(=O)N(C)[C@H]3CCCCCN(C3=O)[C@@H](Cc3ccc(C(F)(F)F)cc3)C(=O)N(C)CC(=O)N[C@@H](CCc3cc(F)c(C(F)(F)F)c(F)c3)C(=O)N2C1 [PP0855]
NRAS/KRAS (ratio of KD value for NRAS to KD value for KRAS) [1, 4]: B (a compound having 3 or more and less than 10 is denoted as B) | HRAS/KRAS (ratio of KD value for HRAS to KD value for KRAS) [2, 5]: B (a compound having 3 or more and less than 10 is denoted as B) | IC50 [3]: 0.114 µM

CCC[C@H]1C(=O)N[C@@H]([C@@H](C)CC)C(=O)N(C)CC(=O)N(C)[C@H]2C/C=C\CCN(C2=O)[C@@H](Cc2ccc(C)cc2)C(=O)N(C)CC(=O)N[C@@H](CCc2cc(F)c(C(F)(F)F)c(F)c2)C(=O)N2C[C@H](OCC)C[C@H]2C(=O)NC2(CC(C)(C)C2)C(=O)N(C)[C@@H](C(CC)CC)C(=O)N(C)[C@H](C(=O)N(C)C)CC(=O)N1C [PP2064]
NRAS/KRAS (ratio of KD value for NRAS to KD value for KRAS) [1, 4]: A (a compound having 10 or more and less than 20 is denoted as A) | HRAS/KRAS (ratio of KD value for HRAS to KD value for KRAS) [2, 5]: A (a compound having 10 or more and less than 20 is denoted as A) | IC50 [3]: 0.0136 µM

CCCO[C@@H]1C[C@H]2C(=O)NC3(CC(C)(C)C3)C(=O)N(C)[C@@H](C3CCCC3)C(=O)N(C)[C@H](C(=O)N(C)CC)CC(=O)N(C)[C@H]3CCCc4ccc(cc4)C[C@@H](C(=O)N(C)CC(=O)N[C@@H](CCc4ccc(C(F)(F)F)c(OC)c4)C(=O)N2C1)N1CC/C=C\C[C@@H](C1=O)N(C)C(=O)CN(C)C(=O)[C@H]([C@@H](C)CC)NC3=O [PP3083]
NRAS/KRAS (ratio of KD value for NRAS to KD value for KRAS) [1, 4]: A (a compound having 10 or more and less than 20 is denoted as A) | ratio of the KD value with respect to GDP-bound NRAS wild-type protein to the KD value with respect to KRAS ([1]; KD(NRAS)/KD(KRAS)): A (a compound having 10 or more and less than 20 is denoted as A) | HRAS/KRAS (ratio of KD value for HRAS to KD value for KRAS) [2, 5]: A (a compound having 10 or more and less than 20 is denoted as A) | ratio of the KD value with respect to GDP-bound HRAS wild-type protein to the KD value with respect to KRAS ([2]; KD(HRAS)/KD(KRAS)): A (a compound having 10 or more and less than 20 is denoted as A) | IC50 ([3]; read-out: NCI-H441 cell proliferation inhibitory activity, 50% proliferation inhibitory concentration (IC50 value), NCI-H441, four days, CellTiter-Glo): 0.0025 µM

CCC[C@H]1C(=O)N[C@@H]([C@@H](C)CC)C(=O)N(C)CC(=O)N(C)[C@H]2C/C=C\CCN(C2=O)[C@@H](CC2CCCCC2)C(=O)N(C)CC(=O)N[C@@H](CCc2ccc(C(F)(F)F)c(OC)c2)C(=O)N2C[C@H](OCC)C[C@H]2C(=O)N(C)C2(CCC2)C(=O)N(C)[C@@H](C(CC)CC)C(=O)N(C)[C@H](C(=O)N(C)C)CC(=O)N1C [PP2333]
NRAS/KRAS (ratio of KD value for NRAS to KD value for KRAS) [1, 4]: A (a compound having 10 or more and less than 20 is denoted as A) | HRAS/KRAS (ratio of KD value for HRAS to KD value for KRAS) [2, 5]: A (a compound having 10 or more and less than 20 is denoted as A) | IC50 [3]: 0.0447 µM
